Measured values published in PMC8805583, “Discovery of Herbacetin as a Novel SGK1 Inhibitor to Alleviate Myocardial Hypertrophy” (Advanced Science, 2021).

Legend:
ISO mice = experiment: ISO-induced cardiac hypertrophy in mice; format: in vivo
Protocol: Finally, we assessed the cardioprotective effect of HBT in mice infused with the hypertrophic agonist isoproterenol (ISO). Mice were challenged with ISO for 21 days via subcutaneous injection and then were administered with 10 mg kg^−1 of HBT once per day until the mice were sacrificed (Figure 7A).
For isoproterenol (ISO)‐mediated cardiac hypertrophy, mice were randomly divided into 3 groups, control group (Ctrl), ISO group and ISO plus HBT group (HBT), 5 mg kg^−1 day^−1 ISO was given for 21 days by subcutaneous injection. The control mice were treated with 1% DMSO‐vehicle. At the same time, male C57BL/6 mice in HBT group were intraperitoneally injected with 10 mg kg^−1 d^−1 HBT diluted with a solution containing 1% DMSO and 99% saline. Echocardiography was performed on conscious mice using a Vevo 2100 system. M‐mode images of the left ventricular short axis were captured. After echocardiography evaluation, the mice were anesthetized via intraperitoneal injection of 240 mg kg^−1 pentobarbital sodium and were euthanized by excising the heart rapidly.

SGK3 = biological target: T1, SGK3 (Homo sapiens, UniProt Q96BR1); experiment: KinaseProfiler Assay, AGC kinase panel; format: biochemical; settings: HBT 10 µmol; normalized by positive inhibitors
T1 construct: purchased Eurofins Discovery (KinaseProfiler Service)
T1 sequence (Q96BR1 1-496): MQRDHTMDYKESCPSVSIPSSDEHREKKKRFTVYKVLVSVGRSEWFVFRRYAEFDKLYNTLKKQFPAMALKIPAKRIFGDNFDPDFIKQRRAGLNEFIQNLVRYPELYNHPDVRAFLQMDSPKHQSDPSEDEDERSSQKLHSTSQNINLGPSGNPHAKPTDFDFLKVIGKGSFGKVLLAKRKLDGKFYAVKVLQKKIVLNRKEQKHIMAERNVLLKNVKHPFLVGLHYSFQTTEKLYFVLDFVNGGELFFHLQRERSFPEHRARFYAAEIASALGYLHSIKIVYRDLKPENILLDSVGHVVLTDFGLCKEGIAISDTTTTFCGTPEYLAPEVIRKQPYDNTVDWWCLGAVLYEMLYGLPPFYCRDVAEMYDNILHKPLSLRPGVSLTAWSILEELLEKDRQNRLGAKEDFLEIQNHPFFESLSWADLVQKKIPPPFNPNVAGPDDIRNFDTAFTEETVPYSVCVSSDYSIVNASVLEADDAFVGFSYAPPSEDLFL
Text: (§1) 20 structurally related flavonoids of HBT were collected, which differ in the number and position of —OH groups, and examined for their effects on SGK1 activity. Based on the docking prediction, the —OH group at the C‐4’ position of HBT was required for the interaction with the key SGK1 residue D177. Therefore, the 20 flavonoids were divided into two classes according to the presence or absence of an —OH group at C‐4’ (Figure 4B). At both tested concentrations, flavonoids with an —OH group at C‐4’ (class A) inhibited SGK1 more than those without an —OH group at C‐4’ (class B) (Figure 4C). The IC50 of each compound is listed in Figure 4D; and Figure S6 (Supporting Information). […] Conversely, the absence of an ‐OH group at C‐8 led to a greater than 10‐fold reduction in flavonoid SGK1 inhibitory activity, as shown by the performance of A1 or A4. […] The inhibitory activity of HBT (10 µmol) against 28 human AGC kinases was tested by KinaseProfiler Assay (Eurofins Discovery). The percentage of HBT's inhibitory activity against each kinase was normalized by the respective positive inhibitors of AGC kinases.
(§2) The initial crystal structures of SGK1 (PDB entry: 3HDN, 3HDM, and 2R5T) were obtained from the Protein Data Bank (PDB). The prepared inhibitors were then docked by Glide with the extra precision (XP) scoring mode to estimate the binding affinity for each protein–ligand complex. The detailed process of docking has been described previously.^[ [46] ^] HEK293T cells were transfected with SGK1 mutant plasmids. After 24 h, cells were lysed and immunoprecipitated with anti‐FLAG antibody and beads. Immune complexes were washed with kinase buffer and incubated in kinase buffer with substrate peptide for 1 h at 30 ℃ followed by LC/MS measurement as described above. KINOMEscan Profiling Service and KinaseProfiler Service Assay were provided by Eurofins Discovery.

SGK2 = biological target: T2, SGK2 (Homo sapiens, UniProt Q9HBY8); experiment: KinaseProfiler Assay, AGC kinase panel; format: biochemical; settings: HBT 10 µmol; normalized by positive inhibitors
T2 construct: purchased Eurofins Discovery (KinaseProfiler Service)
T2 sequence (Q9HBY8 1-367): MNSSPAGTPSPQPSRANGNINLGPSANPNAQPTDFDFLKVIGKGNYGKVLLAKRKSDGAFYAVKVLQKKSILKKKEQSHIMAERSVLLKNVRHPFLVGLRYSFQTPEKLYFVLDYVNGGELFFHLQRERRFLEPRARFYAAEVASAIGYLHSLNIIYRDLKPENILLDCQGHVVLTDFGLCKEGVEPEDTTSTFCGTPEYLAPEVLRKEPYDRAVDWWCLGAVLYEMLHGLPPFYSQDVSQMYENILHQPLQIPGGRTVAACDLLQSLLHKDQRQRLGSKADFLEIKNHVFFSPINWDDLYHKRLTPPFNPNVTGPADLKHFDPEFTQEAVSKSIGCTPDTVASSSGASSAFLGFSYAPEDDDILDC
Text: as §1, §2

[1] = biological target: T3, G protein-coupled receptor kinase 3 (GRK3) (Homo sapiens, UniProt P35626); experiment: KinaseProfiler Assay, AGC kinase panel; format: biochemical; settings: HBT 10 µmol
T3 construct: purchased Eurofins Discovery (KinaseProfiler Service)
T3 sequence (P35626 1-688): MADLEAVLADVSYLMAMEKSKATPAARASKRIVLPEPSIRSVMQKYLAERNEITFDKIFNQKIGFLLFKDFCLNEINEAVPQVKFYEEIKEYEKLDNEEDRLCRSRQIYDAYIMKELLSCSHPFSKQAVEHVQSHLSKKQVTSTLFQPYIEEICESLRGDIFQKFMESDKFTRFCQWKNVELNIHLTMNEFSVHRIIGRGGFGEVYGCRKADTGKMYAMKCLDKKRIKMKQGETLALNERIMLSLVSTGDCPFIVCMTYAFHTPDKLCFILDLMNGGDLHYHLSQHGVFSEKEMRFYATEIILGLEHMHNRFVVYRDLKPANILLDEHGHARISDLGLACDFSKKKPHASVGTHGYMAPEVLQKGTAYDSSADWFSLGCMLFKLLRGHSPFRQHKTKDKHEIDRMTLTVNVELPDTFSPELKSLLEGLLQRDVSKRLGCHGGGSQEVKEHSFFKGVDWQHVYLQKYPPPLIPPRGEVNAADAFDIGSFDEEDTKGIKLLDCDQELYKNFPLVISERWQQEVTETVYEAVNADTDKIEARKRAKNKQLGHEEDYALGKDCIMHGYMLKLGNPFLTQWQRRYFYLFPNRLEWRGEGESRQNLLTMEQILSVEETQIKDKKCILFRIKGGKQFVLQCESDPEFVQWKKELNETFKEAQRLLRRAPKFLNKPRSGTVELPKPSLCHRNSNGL
Text: as §1, §2

Compound: O=c1c(O)c(-c2ccc(O)cc2)oc2c(O)c(O)cc(O)c12 [HBT, herbacetin]
- toxicity (ISO mice; 10 mg kg−1 d−1 for 21 days): without causing any significant toxicity
- left ventricular ejection fraction (EF%) and fraction shortening (FS%) (ISO mice; ISO 5 mg kg−1 d−1 21 days, HBT 10 mg kg−1 d−1 intraperitoneally): increased
- decreased Bcl-2 and MnSOD levels (ISO mice; ISO mice): almost completely reversed
- serum NT-proBNP (ISO mice; ISO mice, ELISA): decreased level
- heart weight/tibial length (HW/TL) (ISO mice; ISO mice, HBT 10 mg kg−1): reduce the HW/TL level
- left ventricular volume (LV Vol;d and LV Vol;s) (ISO mice; ISO mice, HBT 10 mg kg−1): decreased
- accumulation of collagen fibrosis (ISO mice; ISO mice, Masson's staining): reduced
- expression of p-SGK1, α-SMA and Col-3 (ISO mice; ISO mice, western blot): reduced expression
- FoxO1 phosphorylation, STIM1 and Orai1 protein expression in heart tissue (ISO mice; ISO mouse model): significantly decreased
- level of HO-1 and Nrf2 in heart tissue (ISO mice; ISO mouse model): increased
- inhibitory activity on SGK3 (SGK3): 77%
- inhibitory activity on SGK2 (SGK2): 105%
- inhibitory effect on GRK3 [1]: high inhibitory effects
